Test results reported in patent publication US20260344621A1, “CHEMICAL DISBUDDING METHOD” (WELFARE CONCEPTS LIMITED, priority 2022, published 2026).
“Also recorded” adds a separate entry of the source. Counter-ions that a name gives are not always drawn.

Assays:
horn buds [1] = experiment: Example 2: disbudding efficacy of chloroquine diphosphate and polidocanol, 90 days observation; assay type: in vivo, calves; settings: for Horn growth / Scurs / Success rate / No horn growth: 90 days
Protocol: (§1) A study on calves was performed to test the disbudding efficacy from the administration to horn buds of chloroquine diphosphate and polidocanol.
The chloroquine diphosphate was administered as compositions comprising chloroquine diphosphate suspended in water. The compositions were prepared by dispersing chloroquine diphosphate powder into water for injection. Immediately before administration the compositions were shaken to re-suspend the chloroquine diphosphate.
(§2) The polidocanol was administered either as undiluted polidocanol when administered at 100% concentration, or as a diluted solution with water for the 90%, 50% and 10% concentration groups.
The animals in the study were divided into multiple groups. Groups 1 and 2 were administered saline solution (0.9% sodium chloride) administered as a single dose for group 1, and as divided doses for group 2. Each divided dose comprised 5 doses of 0.1 mL administered around the horn bud.
Groups 3 and 4 were administered chloroquine diphosphate at either 100 mg/ml or 300 mg/mL, and groups 5 to 8 were administered polidocanol are different concentrations ranging from 100% to 10% w/v.

horn buds [2] = experiment: General conclusion on chemical disbudding agents: efficacy; assay type: in vivo, calves
Protocol: (§3) A study was performed to test the disbudding efficacy from the administration to horn buds of mepacrine dihydrochloride, compared to a conventional hot iron disbudding method. The mepacrine dihydrochloride was administered as compositions comprising mepacrine dihydrochloride suspended in water. The compositions were prepared by dispersing mepacrine dihydrochloride powder into water for injection. Immediately before administration the compositions were shaken to re-suspend the mepacrine dihydrochloride.
as §1
(§4) Sixteen calves (4 to 6 days old) obtained from commercial dairy farms were used in this study. The calves were randomly assigned to receive one of the four formulations (Table 3). Animals were gently restrained and the hair around the horn bud region was clipped. The formulations (0.3 to 0.5 mL) were then injected subcutaneously under the right horn bud or around the right horn bud using a McLintock syringe and needle (22G 11/64″, 0.71*4.3 mm) which delivered 0.1 mL on each injection. The left horn bud acted as control. The details of the treatment are given in the below Table 3. […] The differences in the growth rate of the right and left horn buds were determined by measuring the height of the horn buds at regular intervals. Photos of the horn buds were taken at the same time. Calves will be euthanized after 4 months by intravenous injection of pentobarbitone sodium (100 mg/kg bodyweight) for gross pathology and histopathology of horn buds.

horn buds [3] = experiment: Example 3: growth rate of horn buds / efficacy of mepacrine and eugenol formulations; assay type: in vivo, calves (4 to 6 days old); settings: for Height of right horn bud on 40th day / Height of right horn bud on 80th day / Horn growth rate (height of horn buds on 80th day minus height on 40th day), right horn bud: individual calf
Protocol: as §4, with “The formulations (0.3 to 0.5 mL) were then injected subcutaneously under the right horn bud or around the right horn bud using a McLintock syringe and needle (22G 11/64″, 0.71*4.3 mm) which delivered 0.1 mL on each injection.” left out

[4] = Example 3: pain related behaviors and adverse effects following injection; assay type: in vivo, calves (4 to 6 days old)
Protocol: as §4

horn-bud tissue = settings: injected under the horn bud; Sutherland et al 2019; cited from earlier work
horn buds [5] = experiment: Example 1: disbudding efficacy of mepacrine dihydrochloride suspended in water, 90 days observation; assay type: in vivo, calves (bovine dairy calves, 7 days of age); settings: for Horn growth / Scurs / Success rate / No horn growth: 10 animals treated, 90 days
Protocol: as §3
The animals in the study (calves) were divided into multiple groups. Groups 1 to 4 were administered a single dose of 0.5 mL of mepacrine dihydrochloride composition, with each being administered a composition with a different concentration of mepacrine dihydrochloride, ranging from 50 mg/mL to 400 mg/mL.
Groups 5 to 8 were administered a divided dose of 0.5 mL of mepacrine dihydrochloride composition, with each being administered a composition with a different concentration of mepacrine dihydrochloride, ranging from 50 mg/mL to 400 mg/mL. Each divided dose comprised 5 doses of 0.1 mL administered around the horn bud.
(§5) The administration of the mepacrine dihydrochloride was performed by injecting the mepacrine dihydrochloride composition using a McLintock pre-set syringe configured to administer up to 0.5 mL. The single dose administration for groups 1 to 4 was performed by injecting the composition directly into the horn bud. The divided dose administration for groups 5 to 8 was performed by injecting the smaller doses to the area immediately around the horn bud. The animals in control group 9 were first treated with a 2% lignocaine injection as a cornual nerve block and then disbudded using a conventional hot-iron.
The left horn bud on each animal was left untreated as a control.
(§6) The animals in the study were bovine dairy calves, progressively enrolled in the study and treated at 7 days of age.
The success rate is based on the proportion of treated horn buds that had no subsequent horn growth or presence of a scur. A horn scur is a distorted horn that is not attached to the skull. […] The untreated horn bud on every animal developed into a horn.

[6] = Example 1: pain response and procedure time; assay type: in vivo, calves (bovine dairy calves, 7 days of age)
Protocol: as §3, §5, §6
The administration procedure of disbudding by administering mepacrine was less than 1 minute for each animal, compared to 5-10 minutes for the animals disbudded with the hot-iron.

horn bud = settings: high concentrations injected into the horn bud; Koger 1976; cited from earlier work
[7] = prior trials; cited from earlier work
[8] = Example 2: viscosity of the polidocanol compositions (observation); assay type: physicochemical; settings: eg. 90%
Protocol: as §2

horn bud tissue = settings: as a cryogenic fluid; cited from earlier work
[9] = 100 mg/mL, single injection (0.5 mL), 3 animals treated
[10] = 300 mg/ml, single injection (0.5 mL), 4 animals treated
[11] = 50 mg/mL, multiple injections (5 × 0.1 mL)
[12] = 50 mg/mL, single injection (0.5 mL)
[13] = 100 mg/mL, multiple injections (5 × 0.1 mL)
[14] = 100 mg/mL, single injection (0.5 mL)
[15] = 200 mg/mL, multiple injections (5 × 0.1 mL)
[16] = 200 mg/mL, single injection (0.5 mL)
[17] = 400 mg/mL, multiple injections (5 × 0.1 mL)
[18] = 400 mg/mL, single injection (0.5 mL)
[19] = 50% polidocanol (0.5 mL), 4 animals treated
[20] = 90% polidocanol (0.5 mL), 4 animals treated
[21] = 100% polidocanol (0.5 mL), 1 animal treated

Work on `CCN(CC)CCCC(C)Nc1ccnc2cc(Cl)ccc12` (stereo not drawn) [Chloroquine diphosphate] yielded a Horn growth (horn buds [1]; [9]) of 2, a Scurs (horn buds [1]; [9]) of 1 and a Success rate (horn buds [1]; [9]) of 0%. The “Disbudding success (in words)” value (horn buds [1]; 300 mg/mL) was “some success”, the “Horn growth outcome (in words)” value (horn buds [1]; 300 mg/mL) was “half the animals having no horn growth at all, and the other have having only scurs forming” and the No horn growth (horn buds [1]; [10]) was 2. The Scurs (horn buds [1]; [10]) was 2, the Success rate (horn buds [1]; [10]) was 50% and the “Function as chemical disbudding agents” value (horn buds [2]) was “effective chemical disbudding agents”.

In the case of `C=CCc1ccc(O)c(OC)c1` [Eugenol], the “Height of right horn bud on 40th day” value (horn buds [3]; 0.2 mL under the horn bud) was “(5-5) mm”, the “Height of right horn bud on 80th day” value (horn buds [3]; 0.2 mL under the horn bud) was “(5-5) mm” and the “Horn growth rate (height of horn buds on 80th day minus height on 40th day), right horn bud” value (horn buds [3]; 0.2 mL under the horn bud) was 0 mm. The “Height of right horn bud on 40th day” value (horn buds [3]; 0.3 mL under the horn bud) was “(8-8) mm”, the “Height of right horn bud on 80th day” value (horn buds [3]; 0.3 mL under the horn bud) was “(8-8) mm” and the “Horn growth rate (height of horn buds on 80th day minus height on 40th day), right horn bud” value (horn buds [3]; 0.3 mL under the horn bud) was 0 mm. For the same compound, the “Height of right horn bud on 40th day” value (horn buds [3]; 0.4 mL around the horn bud) was 17 mm, the “Height of right horn bud on 80th day” value (horn buds [3]; 0.4 mL around the horn bud) was 19 mm and the “Horn growth rate (height of horn buds on 80th day minus height on 40th day), right horn bud” value (horn buds [3]; 0.4 mL around the horn bud) was 2mm. The “Height of right horn bud on 40th day” value (horn buds [3]; 0.5 mL around the horn bud) was 8 mm, the “Height of right horn bud on 80th day” value (horn buds [3]; 0.5 mL around the horn bud) was 10 mm and the “Horn growth rate (height of horn buds on 80th day minus height on 40th day), right horn bud” value (horn buds [3]; 0.5 mL around the horn bud) was 2 mm. The “Height of right horn bud on 40th day” value (horn buds [3]; 0.5 mL under the horn bud) was 14 mm, the “Height of right horn bud on 80th day” value (horn buds [3]; 0.5 mL under the horn bud) was 22 mm and the “Horn growth rate (height of horn buds on 80th day minus height on 40th day), right horn bud” value (horn buds [3]; 0.5 mL under the horn bud) was 8 mm. For the same compound, the “Effective (number of animals), subjective assessment of efficacy” value (horn buds [3]; N = 5 (aqueous mepacrine), 5 (eugenol), 2 (20:80), 3 (80:20)) was 3, the “Ineffective (number of animals), subjective assessment of efficacy” value (horn buds [3]; N = 5 (aqueous mepacrine; around the horn bud), 5 (eugenol), 3 (80:20; around the horn bud)) was 2 and the “Ineffective, of these around the horn bud (number of animals)” value (horn buds [3]; eugenol, N = 5, around the horn bud) was 1. For the same compound, the “Character and course of the swelling” value ([4]; following the injection) was “painless to touch and resolved after few days”, the “Swelling around the horn buds” value ([4]; following the injection) was “Swelling around the horn buds was observed; also recorded: Painless swelling at site of injection” and the “Swelling and scars at the site of injection” value ([4]; main finding 4) was “slight swelling and scars at the site of injection”. For the same compound, the “Scars and depression at the site of injection” value ([4]; site of injection) was “scars and depression were seen at the site of injection” and the Disbudding efficacy (horn-bud tissue) was “relatively ineffective, delaying rather preventing horn growth in many cases”.

Compound `CCN(CC)CCCC(C)Nc1c2ccc(Cl)cc2nc2ccc(OC)cc12` (stereo not drawn) [Mepacrine dihydrochloride] has a Horn growth (horn buds [5]; [11]) of 9, a Scurs (horn buds [5]; [11]) of 1 and a Success rate (horn buds [5]; [11]) of 0%. It also gave a Horn growth (horn buds [5]; [12]) of 7, a No horn growth (horn buds [5]; [12]) of 3 and a Success rate (horn buds [5]; [12]) of 30%. The Horn growth (horn buds [5]; [13]) was 2, the No horn growth (horn buds [5]; [13]) was 5 and the Scurs (horn buds [5]; [13]) was 3. It also gave a Success rate (horn buds [5]; [13]) of 50%, a Horn growth (horn buds [5]; [14]) of 7 and a No horn growth (horn buds [5]; [14]) of 3. For the same compound, the Success rate (horn buds [5]; [14]) was 30%, the No horn growth (horn buds [5]; [15]) was 9 and the Scurs (horn buds [5]; [15]) was 1. The Success rate (horn buds [5]; [15]) was 90%, the Horn growth (horn buds [5]; [16]) was 1 and the No horn growth (horn buds [5]; [16]) was 8. For the same compound, the Scurs (horn buds [5]; [16]) was 1, the Success rate (horn buds [5]; [16]) was 80% and the Horn growth (horn buds [5]; [17]) was 1. The No horn growth (horn buds [5]; [17]) was 7, the Scurs (horn buds [5]; [17]) was 2 and the Success rate (horn buds [5]; [17]) was 70%. The No horn growth (horn buds [5]; [18]) was 8, the Scurs (horn buds [5]; [18]) was 2 and the Success rate (horn buds [5]; [18]) was 80%. For the same compound, the “Success rate (in words)” value (horn buds [5]; 0.5 mL of 200 mg/mL and 400 mg/L (so in the source), single injection and divided dose) was “high success rates”, the “Success rate by concentration (in words)” value (horn buds [5]; 200 and 400 mg/mL vs 50 and 100 mg/mL) was “higher success rate in the higher concentration groups of 200 and 400 mg/mL” and the “Advantage of splitting the dose into multiple injections” value (horn buds [5]; single vs multiple injections) was “no noticeable advantage”. For the same compound, the Pain response ([6]; after mepacrine disbudding treatment) was “very little pain response”, the “Discomfort and pain reactions/behaviour” value ([6]; during administration) was “very little discomfort during administration and showed no pain reactions/behaviour” and the “Discomfort / pain activity during and after injections” value ([6]; during injections and after completion) was “discomfort during the injections and no subsequent pain activity after completion of the injections”. The “Function as chemical disbudding agents” value (horn buds [2]) was “effective chemical disbudding agents”.

For `[Ca+2].[Cl-].[Cl-]` [calcium chloride], the Inflammation (horn bud) is given as “significant inflammation” and the “Necrosis of the tissue” value (horn bud) is given as “causing necrosis of the tissue”.

For `[Na+].[OH-]` [caustic soda], the Adverse effects [7] is given as “can lead to blindness of the treated animals”.

Compound Polidocanol has a No horn growth (horn buds [1]; 10% polidocanol (0.5 mL), 1 animal treated) of 1, a Horn growth (horn buds [1]; [19]) of 3 and a Scurs (horn buds [1]; [19]) of 1. The Success rate (horn buds [1]; [19]) was 0%, the Horn growth (horn buds [1]; [20]) was 1 and the No horn growth (horn buds [1]; [20]) was 1. The Scurs (horn buds [1]; [20]) was 2, the Success rate (horn buds [1]; [20]) was 25% and the “Disbudding success (in words)” value (horn buds [1]; 100% concentration and 10% concentration) was “successful”. For the same compound, the No horn growth (horn buds [1]; [21]) was 1, the Success rate (horn buds [1]; [21]) was 100% and the “Disbudding success (in words)” value (horn buds [1]; other concentrations (90%, 50%)) was “less successful”. The “Viscosity of the higher concentration compositions” value [8] was “highly viscous” and the “Function as chemical disbudding agents” value (horn buds [2]) was “effective chemical disbudding agents”.

In the case of liquid nitrogen, the “Destruction of horn bud tissue” value (horn bud tissue) is listed as “almost entirely ineffective”.
